Data from patent publication US7413895B2, “DNA encoding neutral amino acid transporter” (Japan Science and Technology Corporation, priority 1998, dated 2008).
“Also recorded” adds a separate entry of the source.

Tests used:
[1] = tested on: Mouse sarcoma 180 cells; test: Survival of ICR mouse after intraperitoneal transplantation of mouse sarcoma 180 cells; type: in vivo; settings: male ICR mouse, sarcoma 180 cells intraperitoneally transplanted, 300 mg/kg for ten days, observation for 19 days
Procedure: Mouse sarcoma 180 cells were intraperitoneally transplanted (1×10^6) to male ICR mouse and, from the next day of the transplantation, BCH which was a inhibitor for the amino acid transporter, D-Leu having a inhibiting effect on amino acid transporter and D-Ala having no inhibiting action thereon were administered at the dose of 300 mg/kg for ten days. After the transplantation, it was confirmed every day whether the mouse was dead or alive.

[2] = tested on: rat liver cell line where LAT1 was highly expressed; test: Cell proliferation of cultured rat liver cell line, Cell Counting Kit-8; type: cell-based; settings: 20 mM added to William's medium, incubation for 48 hours
Procedure: A rat liver cell line where LAT1 was highly expressed was incubated on a William's medium, 20 mM of D-leucine or BCH which suppressed the incorporation mediated by LAT1 were added to the medium and, by means of an incubation for 48 hours, cell numbers were investigated using a Cell Counting Kit-8 (manufactured by Dojindo Laboratories). The cell numbers were measured as an absorption at 450 nm (O.D. 450).

[3] = target: T1, human amino acid transporter LAT1 (Homo sapiens, UniProt Q01650); test: Incorporation of 14C-labeled amino acids into oocytes co-expressing human LAT1 and human 4F2hc; type: cell-based; set-up: expressed in transfected cells; settings: for incorporation of 14C-labeled amino acid into oocytes: oocytes co-expressing human LAT1 and human 4F2hc, 14C-labeled substrate 50 μM, 30 minutes; for incorporation in a cell in which human LAT1 and human 4F2hc are co-expressed: summary statement of the disclosure
[4] = target: T1, human amino acid transporter LAT1; test: Competitive antagonism test: incorporation of 14C-labeled leucine or phenylalanine into oocytes co-expressing human LAT1 and human 4F2hc in the presence of test substance; type: cell-based; set-up: expressed in transfected cells; settings: test substance 2 mM, 30 minutes; for inhibition of incorporation of 14C-labeled leucine mediated by the human LAT1: 14C-labeled leucine 20 μM, choline chloride uptake solution
[5] = tested on: T24 cells derived from human bladder cancer; test: Inhibition of 14C-leucine incorporation by T24 cells by amino acids and similar substances; type: cell-based; settings: 14C-leucine 20 μM, 2 mM unlabeled compound
[6] = target: T2, rat neutral amino acid transporter LAT1 (Rattus norvegicus, UniProt Q63016); test: Inhibition of 14C-leucine incorporation into oocytes injected with rat LAT1 and rat 4F2hc cRNA by amino acids and similar substances; type: cell-based; set-up: expressed in transfected cells; host or cells: oocytes (Xenopus laevis by the cited method of Kanai and Hediger) injected with rat LAT1 cRNA and rat 4F2hc cRNA; settings: rat LAT1/rat 4F2hc oocytes; 14C-leucine 20 μM, 2 mM unlabeled compound, choline uptake solution
[7] = target: T2, rat neutral amino acid transporter LAT1; test: Incorporation of radiolabeled amino acids into oocytes injected with rat LAT1 and rat 4F2hc cRNA; type: cell-based; set-up: expressed in transfected cells; host or cells: oocytes (Xenopus laevis by the cited method of Kanai and Hediger) injected with rat LAT1 cRNA and rat 4F2hc cRNA; settings: 14C compounds as substrates
Procedure: Thus, the oocytes into which rat LAT1 gene cRNA, rat 4F2hc gene cRNA or rat LAT1 gene cRNA/rat 4F2hc gene cRNA was injected were incubated for 30 minutes in an uptake solution containing ^14C-leucine (50 μM) and incorporation of radioactivity into the oocytes was measured.
As a substrate however, various radiolabeled compounds were used in place of ^14C-leucine.

[8] = target: T2, rat neutral amino acid transporter LAT1; settings: read-out: Km value; leucine as substrate; oocytes injected with rat LAT1 and rat 4F2hc cRNA
[9] = tested on: T24 cells derived from human bladder cancer; test: Michaelis-Menten kinetic test for the incorporation of leucine by T24 cells; type: cell-based; settings: leucine as substrate
Procedure: T24 cells derived from human bladder cancer were incubated and maintained in an Eagle's minimal essential medium containing 10% of fetal bovine serum. A test for the incorporation of amino acids into T24 cells was carried out by incubating the T24 cells on a 24-well plate and finished when the state became confluent. The amino acid incorporation test was started by removing the incubating solution and adding a Dulbecco's PBS (manufactured by Gibco) containing ^14C-amino acid and finished by removing it, cooling with ice and washing with a Dulbecco's PBS. After washing, the above was dissolved in 0.1N NaOH and the radioactivity was measured by a liquid scintillation counter.
A Michaelis-Menten kinetic test was carried out for the incorporation of leucine by T24 cells. The Michaelis-Menten kinetic test was conducted by investigating the changes in the incorporated rate of leucine by the difference in the concentration of the substrate leucine.

[10] = target: T1, human amino acid transporter LAT1; settings: read-out: Michaelis constant (Km); leucine as substrate; Xenopus laevis oocytes co-expressing human LAT1 and human 4F2hc

T1 sequence (Q01650 whole entry): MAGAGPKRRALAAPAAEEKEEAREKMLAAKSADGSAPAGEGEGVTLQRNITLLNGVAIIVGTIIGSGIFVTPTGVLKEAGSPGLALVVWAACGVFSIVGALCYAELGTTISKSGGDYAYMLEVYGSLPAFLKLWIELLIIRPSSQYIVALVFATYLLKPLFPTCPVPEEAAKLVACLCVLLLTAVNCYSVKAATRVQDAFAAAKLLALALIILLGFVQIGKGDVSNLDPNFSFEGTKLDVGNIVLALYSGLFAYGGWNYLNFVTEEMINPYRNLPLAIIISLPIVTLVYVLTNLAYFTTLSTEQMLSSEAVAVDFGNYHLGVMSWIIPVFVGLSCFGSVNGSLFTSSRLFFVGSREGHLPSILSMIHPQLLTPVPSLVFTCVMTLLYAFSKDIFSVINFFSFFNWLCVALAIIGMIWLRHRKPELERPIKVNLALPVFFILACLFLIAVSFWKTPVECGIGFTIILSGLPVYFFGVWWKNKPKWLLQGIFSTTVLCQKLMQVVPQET
T1 sequence (as listed by the source partner): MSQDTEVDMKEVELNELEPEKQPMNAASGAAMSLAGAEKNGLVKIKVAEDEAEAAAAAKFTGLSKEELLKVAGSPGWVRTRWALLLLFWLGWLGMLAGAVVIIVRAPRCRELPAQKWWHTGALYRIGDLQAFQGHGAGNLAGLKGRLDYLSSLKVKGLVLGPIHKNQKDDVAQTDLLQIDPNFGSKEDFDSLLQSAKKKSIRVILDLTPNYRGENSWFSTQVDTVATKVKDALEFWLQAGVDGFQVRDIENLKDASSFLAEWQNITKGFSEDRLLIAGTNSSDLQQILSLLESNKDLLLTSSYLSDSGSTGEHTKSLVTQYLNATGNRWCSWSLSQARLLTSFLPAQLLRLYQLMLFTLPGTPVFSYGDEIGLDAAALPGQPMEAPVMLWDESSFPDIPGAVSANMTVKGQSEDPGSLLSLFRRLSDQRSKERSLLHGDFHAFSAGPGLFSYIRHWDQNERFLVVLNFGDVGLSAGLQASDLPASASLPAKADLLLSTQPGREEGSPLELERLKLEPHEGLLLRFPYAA
T2 sequence (Q63016 whole entry): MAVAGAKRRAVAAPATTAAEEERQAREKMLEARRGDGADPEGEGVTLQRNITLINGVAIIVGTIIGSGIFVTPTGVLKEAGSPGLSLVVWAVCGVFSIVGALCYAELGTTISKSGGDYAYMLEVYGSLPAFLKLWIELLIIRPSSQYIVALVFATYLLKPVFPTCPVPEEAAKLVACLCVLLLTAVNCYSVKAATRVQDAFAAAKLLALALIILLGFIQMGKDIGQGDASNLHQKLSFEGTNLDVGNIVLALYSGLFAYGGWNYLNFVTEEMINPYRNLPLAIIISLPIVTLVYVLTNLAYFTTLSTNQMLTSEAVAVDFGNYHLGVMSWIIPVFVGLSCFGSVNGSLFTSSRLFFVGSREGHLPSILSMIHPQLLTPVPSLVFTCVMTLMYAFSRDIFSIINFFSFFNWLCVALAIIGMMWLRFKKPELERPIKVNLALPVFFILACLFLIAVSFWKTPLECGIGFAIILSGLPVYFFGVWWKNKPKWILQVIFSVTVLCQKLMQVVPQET
T2 sequence (Q794F9 whole entry partner): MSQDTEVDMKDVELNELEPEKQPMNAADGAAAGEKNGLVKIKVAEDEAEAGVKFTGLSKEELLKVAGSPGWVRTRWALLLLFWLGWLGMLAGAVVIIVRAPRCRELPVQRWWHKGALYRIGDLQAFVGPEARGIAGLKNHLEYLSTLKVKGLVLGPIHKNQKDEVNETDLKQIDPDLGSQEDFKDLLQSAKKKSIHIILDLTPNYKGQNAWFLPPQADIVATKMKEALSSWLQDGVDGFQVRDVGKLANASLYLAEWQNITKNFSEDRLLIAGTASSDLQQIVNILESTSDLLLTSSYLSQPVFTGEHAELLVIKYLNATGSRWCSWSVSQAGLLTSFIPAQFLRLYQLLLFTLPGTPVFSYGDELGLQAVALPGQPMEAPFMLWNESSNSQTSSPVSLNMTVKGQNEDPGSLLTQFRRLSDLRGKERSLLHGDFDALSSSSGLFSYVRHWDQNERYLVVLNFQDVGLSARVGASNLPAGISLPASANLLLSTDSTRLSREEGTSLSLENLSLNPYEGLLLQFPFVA

| incorporation in a cell in which human LAT1 and human 4F2hc are co-expressed [3] | inhibition of incorporation of 14C-leucine mediated by LAT1 [6] | SMILES | incorporation of 14C-labeled amino acid into oocytes [3] | inhibition of incorporation of 14C-labeled leucine mediated by the human LAT1 [4] | inhibition of incorporation of 14C-leucine by T24 cells [5] | incorporation of radiolabeled substrate into the oocytes [7] | further results |
| --- | --- | --- | --- | --- | --- | --- | --- |
|  |  | C[C@@H](N)C(=O)O [D-Ala] |  |  |  |  | survival effect [1]: No survival effect |
|  |  | CC(C)C[C@@H](N)C(=O)O [D-leucine] | incorporated |  |  |  | cell numbers (O.D. 450) compared with control group [2]: a reduction in the cell numbers was noted; survival effect [1]: significant survival effect |
|  |  | N[C@H](Cc1ccccc1)C(=O)O [D-phenylalanine] | incorporated |  |  |  |  |
| confirmed |  | N[C@@H](Cc1ccc(O)c(O)c1)C(=O)O [L-DOPA] |  |  |  |  | inhibition of incorporation of 14C-labeled phenylalanine into oocytes ([4]; 14C-labeled phenylalanine instead of leucine, choline uptake solution): strongly inhibited |
|  |  | N=C(N)NCCC[C@H](N)C(=O)O [arginine] |  | not affected at all |  |  |  |
| significant incorporation |  | NC(=O)C[C@H](N)C(=O)O [asparagine] |  |  |  |  |  |
|  |  | N[C@@H](CC(=O)O)C(=O)O [aspartic acid] |  | not affected at all |  |  |  |
| significant incorporation |  | N[C@@H](CS)C(=O)O [cysteine] |  |  | strong cis-inhibiting effect |  |  |
|  |  | N[C@@H](CCC(=O)O)C(=O)O [glutamic acid] |  | not affected at all |  |  |  |
| significant incorporation |  | NC(=O)CC[C@H](N)C(=O)O [glutamine] |  |  |  |  |  |
| very strong incorporation | strongly inhibited | CC[C@H](C)[C@H](N)C(=O)O [isoleucine] | significantly incorporated | strongly inhibited | strong cis-inhibiting effect | incorporation into the oocytes was noted |  |
| very strong incorporation | strongly inhibited | CC(C)C[C@H](N)C(=O)O [leucine] | large incorporation; also recorded: significantly incorporated | strongly inhibited | strong cis-inhibiting effect | big incorporation; also recorded: incorporation into the oocytes was noted | Km [8]: ~24 µM; Km [9]: 100 µM; Vmax value of leucine incorporation [9]: 23,870 pmol/mg protein/minute; Km [10]: ~21 µM |
|  |  | NCCCC[C@H](N)C(=O)O [lysine] |  | not affected at all |  |  |  |
| very strong incorporation | strongly inhibited | N[C@@H](Cc1ccccc1)C(=O)O [phenylalanine] | significantly incorporated | strongly inhibited | strong cis-inhibiting effect | incorporation into the oocytes was noted |  |
| significant incorporation |  | C[C@@H](O)[C@H](N)C(=O)O [threonine] |  |  |  |  |  |
|  | inhibited | N[C@@H](Cc1cc(I)c(Oc2cc(I)c(O)c(I)c2)c(I)c1)C(=O)O [thyroxin] |  |  |  |  |  |
| very strong incorporation | strongly inhibited | N[C@@H](Cc1ccc(O)cc1)C(=O)O [tyrosine] | significantly incorporated | strongly inhibited | strong cis-inhibiting effect | incorporation into the oocytes was noted |  |
| very strong incorporation | strongly inhibited | CC(C)[C@H](N)C(=O)O [valine] | significantly incorporated | strongly inhibited | strong cis-inhibiting effect | incorporation into the oocytes was noted |  |

| SMILES | incorporation in a cell in which human LAT1 and human 4F2hc are co-expressed [3] | inhibition of incorporation of 14C-leucine mediated by LAT1 [6] | incorporation of 14C-labeled amino acid into oocytes [3] | inhibition of incorporation of 14C-labeled leucine mediated by the human LAT1 [4] | inhibition of incorporation of 14C-leucine by T24 cells [5] | incorporation of radiolabeled substrate into the oocytes [7] | further results |
| --- | --- | --- | --- | --- | --- | --- | --- |
| N[C@@H](Cc1c[nH]cn1)C(=O)O [histidine] | very strong incorporation | strongly inhibited | significantly incorporated | strongly inhibited | strong cis-inhibiting effect | incorporation into the oocytes was noted |  |
| N[C@@H](Cc1ccc(N(CCCl)CCCl)cc1)C(=O)O [melphalan] |  | inhibited |  |  |  |  |  |
| CSCC[C@H](N)C(=O)O [methionine] | very strong incorporation | strongly inhibited | significantly incorporated | strongly inhibited | strong cis-inhibiting effect | incorporation into the oocytes was noted |  |
| N[C@@H](Cc1c[nH]c2ccccc12)C(=O)O [tryptophan] | very strong incorporation | strongly inhibited | significantly incorporated | strongly inhibited | strong cis-inhibiting effect | incorporation into the oocytes was noted |  |
